These results are taken from patent US10913727B2, “Modulators of the integrated stress pathway” (Calico Life Sciences LLC, priority 2016, dated 2021).

For the experiment, the system named is HEK293T cells carrying the ATF4 luciferase reporter. As to the kind of experiment: ATF4-Luc assay, in vitro model of Vanishing Cell White Matter Disease (VWMD). In kind it is cell-based. The settings on record: Homo sapiens, HEK-293T, 1 μg/mL tunicamycin, 7 hours, One Glo luminescence. The essentials:
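Reporter cells were stably generated by retroviral transduction and puromycin selection, then seeded at 30,000 cells/well. Next day, cells received 1 μg/mL tunicamycin with 200 nM test compound for 7 h, and luciferase luminescence was read with a one-step reagent. Values reported as EC50.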
Take `O=C(COc1ccc(Cl)c(F)c1)NC12CC(NC(=O)c3cc(O)ccn3)(C1)C2` [Compound 183, N-{3-[2-(4-chloro-3-fluorophenoxy)acetamido]bicyclo[1.1.1]pentan-1-yl}-4-hydroxypyridine-2-carboxamide]: the EC50 is 1000 to 2000 nM.

In the case of `O=C(COc1ccc(Cl)c(F)c1)NC12CC(NC(=O)c3nc4ccccc4o3)(C1)C2` [Compound 347, N-{3-[2-(4-chloro-3-fluorophenoxy)acetamido]bicyclo[1.1.1]pentan-1-yl}-1,3-benzoxazole-2-carboxamide], the EC50 fell in the range of 250 to 1000 nM.

Regarding `O=C(COc1ccc(Cl)c(F)c1)NC12CC(NC(=O)c3cc4n(n3)CCC4)(C1)C2` [Compound 259, N-{3-[2-(4-chloro-3-fluorophenoxy)acetamido]bicyclo[1.1.1]pentan-1-yl}-5,6-dihydro-4H-pyrrolo[1,2-b]pyrazole-2-carboxamide], the EC50 lay in the range of 250 to 1000 nM.

Regarding `Cn1nc(C(F)F)cc1C(=O)NC12CC(NC(=O)COc3ccc(Cl)c(F)c3)(C1)C2` [Compound 365, N-{3-[2-(4-chloro-3-fluorophenoxy)acetamido]bicyclo[1.1.1]pentan-1-yl}-3-(difluoromethyl)-1-methyl-1H-pyrazole-5-carboxamide], the EC50 was less than 50 nM.

Turning to `O=C(COc1ccc(Cl)c(F)c1)NC12CC(NC(=O)c3ccc(OC(F)(F)F)cc3)(C1)C2` [Compound 321, N-{3-[2-(4-chloro-3-fluorophenoxy)acetamido]bicyclo[1.1.1]pentan-1-yl}-4-(trifluoromethoxy)benzamide], the EC50 lay within 50 to 250 nM.

In the case of `O=C(COc1ccc(Cl)c(F)c1)NC12CC(NC(=O)c3cc(F)ccc3F)(C1)C2` [Compound 510, N-{3-[2-(4-chloro-3-fluorophenoxy)acetamido]bicyclo[1.1.1]pentan-1-yl}-2,5-difluorobenzamide], the EC50 lay within 250 to 1000 nM.

With `Cn1cnc2cc(C(=O)NC34CC(NC(=O)COc5ccc(Cl)c(F)c5)(C3)C4)ccc2c1=O` [Compound 342, N-{3-[2-(4-chloro-3-fluorophenoxy)acetamido]bicyclo[1.1.1]pentan-1-yl}-3-methyl-4-oxo-3,4-dihydroquinazoline-7-carboxamide], the EC50 was 250 to 1000 nM.

With `Cc1noc(C(=O)NC23CCC(NC(=O)COc4ccc(Cl)c(F)c4)(CC2)[C@@H](O)C3)n1` [Compound 575, N-{(3S)-4-[2-(4-chloro-3-fluorophenoxy)acetamido]-3-hydroxybicyclo[2.2.2]octan-1-yl}-3-methyl-1,2,4-oxadiazole-5-carboxamide], the EC50 was less than 50 nM.

With `O=C(COc1ccc(Cl)c(F)c1)NC12CCC(NC(=O)c3ccc(C(F)(F)F)o3)(CC1)CC2O` (stereo not shown) [Compound 625, N-{4-[2-(4-chloro-3-fluorophenoxy)acetamido]-3-hydroxybicyclo[2.2.2]octan-1-yl}-5-(trifluoromethyl)furan-2-carboxamide], the EC50 is 250 to 1000 nM.

Take `O=C(COc1ccc(Cl)c(F)c1)NC12CC(Nc3ccc(C(F)(F)F)cn3)(C1)C2` [Compound 103, 2-(4-chloro-3-fluorophenoxy)-N-(3-{[5-(trifluoromethyl)pyridin-2-yl]amino}bicyclo[1.1.1]pentan-1-yl)acetamide]: the EC50 was in the range of 1000 to 2000 nM.

For the compound `O=C(COc1ccc(Cl)c(F)c1)NC12CCC(NC(=O)c3ccc(CO)cn3)(CC1)C[C@@H]2O` [Compound 753, N-{(3S)-4-[2-(4-chloro-3-fluorophenoxy)acetamido]-3-hydroxybicyclo[2.2.2]octan-1-yl}-5-(hydroxymethyl)pyridine-2-carboxamide], the EC50 was 250 to 1000 nM.

On to `O=C(COc1ccc(Cl)c(F)c1)NC12CC(NC(=O)c3cnc4[nH]ncc4c3)(C1)C2` [Compound 608, N-{3-[2-(4-chloro-3-fluorophenoxy)acetamido]bicyclo[1.1.1]pentan-1-yl}-1H-pyrazolo[3,4-b]pyridine-5-carboxamide], for which the EC50 was 50 to 250 nM.

Regarding `COCc1nc(C(=O)NC23CCC(NC(=O)COc4ccc(Cl)c(F)c4)(CC2)C(O)C3)cs1` (stereo not shown) [Compound 523, N-{4-[2-(4-chloro-3-fluorophenoxy)acetamido]-3-hydroxybicyclo[2.2.2]octan-1-yl}-2-(methoxymethyl)-1,3-thiazole-4-carboxamide], the EC50 lay in the range of 50 to 250 nM.

For `Cc1ccc(C(=O)NC23CCC(NC(=O)COc4ccc(Cl)c(F)c4)(CC2)CC3O)nc1` (stereo not shown) [Compound 169, N-{4-[2-(4-chloro-3-fluorophenoxy)acetamido]-2-hydroxybicyclo[2.2.2]octan-1-yl}-5-methylpyridine-2-carboxamide], the EC50 lay in the range of 50 to 250 nM.

`Cn1c(C(=O)NC23CC(NC(=O)COc4ccc(Cl)c(F)c4)(C2)C3)cc2ccccc21` [Compound 648, N-{3-[2-(4-chloro-3-fluorophenoxy)acetamido]bicyclo[1.1.1]pentan-1-yl}-1-methyl-1H-indole-2-carboxamide]: the EC50 fell in the range of 50 to 250 nM.

For `CCc1cc(C(=O)NC23CCC(NC(=O)COc4ccc(Cl)c(F)c4)(C2)C3)n(C)n1` [Compound 571, N-{4-[2-(4-chloro-3-fluorophenoxy)acetamido]bicyclo[2.1.1]hexan-1-yl}-3-ethyl-1-methyl-1H-pyrazole-5-carboxamide], the EC50 was 250 to 1000 nM.

Take `O=C(COc1ccc(Cl)c(F)c1)NC12CC(NC(=O)c3cc4ncccn4n3)(C1)C2` [Compound 122, N-{3-[2-(4-chloro-3-fluorophenoxy)acetamido]bicyclo[1.1.1]pentan-1-yl}pyrazolo[1,5-a]pyrimidine-2-carboxamide]: the EC50 was 1000 to 2000 nM.

As for `Cc1cc(C(=O)NC23CCC(NC(=O)COc4ccc(Cl)c(F)c4)(CC2)C(O)C3)no1` (stereo not shown) [Compound 272, N-{4-[2-(4-chloro-3-fluorophenoxy)acetamido]-3-hydroxybicyclo[2.2.2]octan-1-yl}-5-methyl-1,2-oxazole-3-carboxamide], the EC50 fell in the range of 50 to 250 nM.

`Cn1nc(C(=O)NC23CC(NC(=O)COc4ccc(Cl)c(F)c4)(C2)C3)c2c1CCC2` [Compound 877, N-{3-[2-(4-chloro-3-fluorophenoxy)acetamido]bicyclo[1.1.1]pentan-1-yl}-1-methyl-1,4,5,6-tetrahydrocyclopenta[c]pyrazole-3-carboxamide]: the EC50 is greater than 2000 nM.

Take `O=C(COc1ccc(Cl)c(F)c1)NC12CC(NC(=O)c3cc(-c4ccc(Cl)cc4)no3)(C1)C2` [Compound 392, N-{3-[2-(4-chloro-3-fluorophenoxy)acetamido]bicyclo[1.1.1]pentan-1-yl}-3-(4-chlorophenyl)-1,2-oxazole-5-carboxamide]: the EC50 is less than 50 nM.

As to `O=C(COc1ccc(Cl)c(F)c1)NC12CCC(NC(=O)c3ccsc3)(CC1)CC2O` (stereo not shown) [Compound 591, N-{4-[2-(4-chloro-3-fluorophenoxy)acetamido]-3-hydroxybicyclo[2.2.2]octan-1-yl}thiophene-3-carboxamide], the EC50 was 50 to 250 nM.

With `Cc1cc(C(=O)NC23CC(NC(=O)COc4ccc(Cl)c(F)c4)(C2)C3)on1` [Compound 295, N-{3-[2-(4-chloro-3-fluorophenoxy)acetamido]bicyclo[1.1.1]pentan-1-yl}-3-methyl-1,2-oxazole-5-carboxamide], the EC50 fell in the range of 250 to 1000 nM.

Take `Cn1cnc2noc(C(=O)NC34CCC(NC(=O)COc5ccc(Cl)c(F)c5)(CC3)C(O)C4)c21` (stereo not shown) [Compound 412, N-{4-[2-(4-chloro-3-fluorophenoxy)acetamido]-3-hydroxybicyclo[2.2.2]octan-1-yl}-4-methyl-4H-imidazo[4,5-c][1,2]oxazole-3-carboxamide]: the EC50 is greater than 2000 nM.

Take `O=C(COc1ccc(Cl)c(F)c1)NC12CC(NC(=O)c3cnco3)(C1)C2` [Compound 573, N-{3-[2-(4-chloro-3-fluorophenoxy)acetamido]bicyclo[1.1.1]pentan-1-yl}-1,3-oxazole-5-carboxamide]: the EC50 was 1000 to 2000 nM.

Take `O=C(COc1ccc(Cl)c(F)c1)NC12CCC(NC(=O)c3cn4cc(F)ccc4n3)(CC1)CC2O` (stereo not shown) [Compound 600, N-{4-[2-(4-chloro-3-fluorophenoxy)acetamido]-3-hydroxybicyclo[2.2.2]octan-1-yl}-6-fluoroimidazo[1,2-a]pyridine-2-carboxamide]: the EC50 fell in the range of 250 to 1000 nM.

Turning to `O=C(COc1ccc(Cl)c(F)c1)NC12CCC(NC(=O)c3ccc(C4CC4)cn3)(CC1)CC2O` (stereo not shown) [Compound 938, N-{4-[2-(4-chloro-3-fluorophenoxy)acetamido]-3-hydroxybicyclo[2.2.2]octan-1-yl}-5-cyclopropylpyridine-2-carboxamide], the EC50 lay within 50 to 250 nM.

`O=C(COc1ccc(Cl)c(F)c1)NC12CCC(NC(=O)c3cc(C4CC4)no3)(CC1)C(O)C2` (stereo not shown) [Compound 331, N-{4-[2-(4-chloro-3-fluorophenoxy)acetamido]-2-hydroxybicyclo[2.2.2]octan-1-yl}-3-cyclopropyl-1,2-oxazole-5-carboxamide]: the EC50 fell in the range of 250 to 1000 nM.

Turning to `COc1ccc(C(=O)NC23CC(NC(=O)COc4ccc(Cl)c(F)c4)(C2)C3)nc1` [Compound 141, N-{3-[2-(4-chloro-3-fluorophenoxy)acetamido]bicyclo[1.1.1]pentan-1-yl}-5-methoxypyridine-2-carboxamide], the EC50 lay in the range of 250 to 1000 nM.

Regarding `CC(C)n1ccc(C(=O)NC23CC(NC(=O)COc4ccc(Cl)c(F)c4)(C2)C3)n1` [Compound 819, N-{3-[2-(4-chloro-3-fluorophenoxy)acetamido]bicyclo[1.1.1]pentan-1-yl}-1-(propan-2-yl)-1H-pyrazole-3-carboxamide], the EC50 was 250 to 1000 nM.

Regarding `O=C(COc1ccc(Cl)c(F)c1)NC12CCC(NC(=O)c3ccccc3)(CC1)[C@@H](O)C2` [Compound 484, N-{(2S)-4-[2-(4-chloro-3-fluorophenoxy)acetamido]-2-hydroxybicyclo[2.2.2]octan-1-yl}benzamide], the EC50 was in the range of 50 to 250 nM.

Turning to `Cc1oncc1C(=O)NC12CC(NC(=O)COc3ccc(Cl)c(F)c3)(C1)C2` [Compound 908, N-{3-[2-(4-chloro-3-fluorophenoxy)acetamido]bicyclo[1.1.1]pentan-1-yl}-5-methyl-1,2-oxazole-4-carboxamide], the EC50 was greater than 2000 nM.
